Test results published in patent publication US20070176143A1, “Stable ill-defined cubic nanosized particles in a ternary aqueous phase” (YISSYM RESEARCH DEVELOPMENT COMPANY OF THE HEBREW …, priority 2003, published 2007).

Procedure: Well ordered liquid crystals have many applications all utilizing their relative structured character and the very large surface area they posses.
2 gr of GMO were melted by heating to about 50° C. In a separate vessel, 2 gr of GMO and lycopene (0.0085 gr) were placed. The vessel was closed and its contents were mixed well with vortex until all the lycopene dissolved. 0.5 gr ethanol was added and the combination further mixed. The vessel was placed in a bath at a temperature of 45° C. 2.5 gr water were added.
2 gr of GMO were melted by heating to about 50° C. In a separate vessel, 2 gr of GMO and 0.5 gr of ethanol were placed. The vessel was closed and its contents were mixed well with vortex. The vessel was placed in a bath at 45° C.
2 gr of GMO were melted by heating to about 50° C. In a separate vessel, 2 gr of GMO and carbamazepine (0.044 gr) were placed. The vessel was closed and its contents were mixed well with vortex until all the carbamazepine dissolved. 0.5 gr ethanol was added and the combination further mixed. The vessel was placed in a bath at a temperature of 45° C. 2.5 gr water were added.
2 gr of GMO were melted by heating to about 50° C. In a separate vessel, 2 gr of GMO and phytosterol (0.2 gr) were placed. […] 0.5 gr ethanol was added and the combination further mixed. The vessel was placed in a bath at a temperature of 45° C. 2.5 gr water were added.
For `NC(=O)N1c2ccccc2C=Cc2ccccc21` [carbamazapine, reference compound], the “solubilization in an aqueous phase comprising the QL semi-ordered phase” value (“solubilization” below) was “successfully solubilized”. For phytosterol, the “solubilization” value was “all the phytosterol dissolved”. In the case of `CC1=C(/C=C/C(C)=C/C=C/C(C)=C/C=C/C=C(C)/C=C/C=C(C)/C=C/C2=C(C)CCCC2(C)C)C(C)(C)CCC1` [β-carotene], the “solubilization” value is reported as “successfully solubilized”. With `CC(C)=CCC/C(C)=C/C=C/C(C)=C/C=C/C(C)=C/C=C/C=C(C)/C=C/C=C(C)/C=C/C=C(\C)CCC=C(C)C` [Lycopene] the “solubilization” value was “successfully solubilized”. With `CC1=C[C@H](O)CC(C)(C)[C@H]1/C=C/C(C)=C/C=C/C(C)=C/C=C/C=C(C)/C=C/C=C(C)/C=C/C1=C(C)C[C@@H](O)CC1(C)C` [leutin] the “solubilization” value was “successfully solubilized”.
